Reference: US20150344466A1 (SUMITOMO CHEMICAL COMPANY, LIMITED, priority 2013, published 2015)

How the values were obtained:
Type in all cases: in vivo
Spodoptera litura = test: Foliar spray test on Spodoptera litura on cabbage (Test Example 11); conditions: 96 h, fourth instar larvae of Spodoptera litura on cabbage, 500 ppm spray 20 ml/cup, after 4 days, read-out: controlling value
How it was run: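 Cabbage is grown in cups to the third–fourth true leaf and sprayed at 20 ml/cup. Once the spray has dried, 10 fourth-instar larvae are released per cup and survivors are counted after 4 days. Controlling value (%) is corrected using pre-treatment and observation counts in treated and untreated sections.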

Culex pipiens pallens [1] = test: Larvicidal test on Culex pipiens pallens, one day (Test Example 6); conditions: 24 h; last-instar larvae of Culex pipiens pallens; 3.5 ppm in water; one day later; read-out: death rate
How it was run: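 Twenty last-instar larvae were placed in 100 ml ion-exchanged water holding 0.7 ml of a 500 ppm aqueous dilution of the formulated compound, giving 3.5 ppm active ingredient. Survival was scored after one day and death rate expressed as dead/tested × 100.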

Culex pipiens pallens [2] = test: Knockdown spray test on adult Culex pipiens pallens (Test Example 4); conditions: topical, 0.25 h, active ingredient 0.1% w/v, 0.5 ml sprayed, within 15 minutes, read-out: knockdown rate of the test insects within 15 minutes
How it was run: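 Ten adult mosquitoes in a gauze-covered cup inside a 46×46×70 cm chamber were sprayed with 0.5 ml of test solution from 30 cm at 0.4 kg/cm^2. The cup was removed at once, and knocked-down insects were counted at 2, 5 and 15 min; knockdown rate (%) = knocked-down/tested ×100.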

Blattella germanica [3] = test: Knockdown spray test on Blattella germanica, 0.1% w/v oil formulation (Test Example 2); conditions: topical, 0.25 h, active ingredient 0.1% w/v, 1.5 ml sprayed, within 15 minutes, read-out: knockdown rate of the test insects within 15 minutes
How it was run: (§1)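 Ten German cockroaches (5 males, 5 females) in a mesh-bottomed, butter-walled container were sprayed with 1.5 ml test solution from 60 cm at 0.42 kg/cm^2 inside a chamber.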

Musca domestica [4] = test: Filter paper/sucrose bait death rate test on Musca domestica (Test Example 5); conditions: female imagoes of Musca domestica, 0.7 ml on filter paper, after 24 hours
How it was run: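 Filter paper in a 5.5 cm cup dosed with 0.7 ml test drug solution, with 30 mg sucrose as bait. Ten female adult houseflies released and cup sealed. Dead insects counted after 24 h; death rate (%) = dead/tested × 100.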

Plutella xylostella = test: Foliar spray test on Plutella xylostella on cabbage (Test Example 10); conditions: 120 h, third instar larvae of Plutella xylostella on cabbage, 500 ppm spray 20 ml/cup, after five days, read-out: controlling value
How it was run: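 Cabbage at the third–fourth true-leaf stage sprayed with test solution at 20 ml/cup, dried, then infested with 10 third-instar larvae. Insects counted after five days; controlling value (%) calculated from treated and non-treated counts before treatment and at observation.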

[5] = test system: Adoxophyes orana fasciata; test: Spray test on Adoxophyes orana fasciata on apple seedling (Test Example 12); conditions: 168 h, first-instar larvae of Adoxophyes orana fasciata on apple seedling, 20 ml spray, seven days after spraying
Description: On the other hand, 20 ml of the test spray solution was each sprayed on an apple seedling (28 days after sowing, a tree height of about 15 cm) planted in a plastic cup. After the drug solution sprayed on the apple was air-dried, about 30 first-instar larvae of Adoxophyes orana fasciata were released. Seven days after spraying, the number of surviving Adoxophyes orana fasciata on the apple seedling was investigated, and the controlling value was calculated according to the following equation. Controlling value (%)={1−(Cb×Tai)/(Cai×Tb)}×100 In the equation, the symbols represent as follows. Cb: the number of insects in a non-treated section before treatment Cai: the number of insects in a non-treated section on observation Tb: the number of insects in a treated section before treatment Tai: the number of insects in a treated section on observation

Aphis gossypii [6] = test: Foliar spray test on Aphis gossypii on cucumber (Test Example 8); conditions: 144 h, 500 ppm spray 20 ml/cup, Sir days after spraying, read-out: controlling value
Description: On the other hand, cucumber was planted in a polyethylene cup and grown until the first true leaf was spread, and about 20 Aphis gossypii were allowed to parasitize the cucumber. One day after, the test spray solution was sprayed to the cucumber at a ratio of 20 ml/cup. Sir days after spraying, the number of Aphis gossypii was investigated, and the controlling value was calculated according to the following equation. Controlling value (%)={1−(Cb×Tai)/(Cai×Tb)}×100 In the equation, the symbols represent as follows. Cb: the number of insects in a non-treated section before treatment Cai: the number of insects in a non-treated section on observation Tb: the number of insects in a treated section before treatment Tai: the number of insects in a treated section on observation

Aphis gossypii [7] = test: Soil treatment test on Aphis gossypii on cucumber (Test Example 9); conditions: 168 h, 5 ml treatment solution in contact with soil, seven days after putting insects, read-out: controlling value
Description: On the other hand, cucumber was planted in a polyethylene cup with a plurality of small holes on the bottom and grown until the first true leaf was spread. A cup in which cucumber was planted was put in a plastic cup with 5 ml of the test treatment solution, so that the soil in the cup was in contact with the treatment liquid. After five days, about 20Aphis gossypii were allowed to parasitize the cucumber, and seven days after putting insects, the number of Aphis gossypii was investigated, and the controlling value was calculated according to the following equation. Controlling value (%)={1−(Cb×Tai)/([…])}×100 In the equation, the symbols represent as follows. Cb: the number of insects in a non-treated section before treatment Cai: the number of insects in a non-treated section on observation Tb: the number of insects in a treated section before treatment Tai: the number of insects in a treated section on observation

Culex pipiens pallens [8] = test: Larvicidal test on Culex pipiens pallens, eight days (Test Example 7); conditions: 192 h; last-instar larvae of Culex pipiens pallens; 3.5 ppm in water; eight days later; read-out: death rate
How it was run: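 Twenty last-instar larvae placed in 100 ml ion-exchanged water containing test drug at 3.5 ppm active ingredient. Mortality scored after eight days; death rate = dead/tested × 100.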

Blattella germanica [9] = test: Knockdown spray test on Blattella germanica, 2.0% w/v oil formulation (Test Example 1); conditions: topical, 0.25 h, active ingredient 2.0% w/v, 1.5 ml sprayed, within 15 minutes, read-out: knockdown rate of the test insects within 15 minutes
How it was run: as §1

Musca domestica [10] = test: Knockdown spray test on adult Musca domestica (Test Example 3); conditions: topical, 0.25 h, active ingredient 2.0% w/v, 0.5 ml sprayed, within 15 minutes, read-out: knockdown rate of the test insects within 15 minutes
How it was run: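 Ten adult house flies (5 male, 5 female) in a gauze-covered cup sprayed with 0.5 ml test solution from 30 cm at 0.9 kg/cm^2 inside a chamber, then removed. Knocked-down flies counted at 2, 5 and 15 min and expressed as % of insects tested.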

| Structure (SMILES) | pest or weed control at 500 ppm (Spodoptera litura) | pest or weed control at 3.5 ppm (Culex pipiens pallens [1]) | pest or weed control at 0.1 % strength (Culex pipiens pallens [2]) | pest or weed control at 0.1 % strength (Blattella germanica [3]) | pest or weed control at 500 ppm (Musca domestica [4]) | pest or weed control at 500 ppm (Plutella xylostella) | pest or weed control at 500 ppm [5] | pest or weed control at 500 ppm (Aphis gossypii [6]) | pest or weed control at 500 ppm (Aphis gossypii [7]) | pest or weed control at 3.5 ppm (Culex pipiens pallens [8]) | pest or weed control at 2 % strength (Blattella germanica [9]) | pest or weed control at 2 % strength (Musca domestica [10]) |
| --- | --- | --- | --- | --- | --- | --- | --- | --- | --- | --- | --- | --- |
| O=C(NCC1CCOC1)c1cc(CCCc2ccc3c(c2)OCO3)on1 (centres unmarked) [(234), N-(tetrahydrofuran-3-ylmethyl)-5-[3-(1,3-benzodioxolan-5-yl)propyl]isoxazole-3-carboxamide] | ≥ 80% | ≥ 90% | ≥ 80% | ≥ 80% | ≥ 90% | ≥ 90% | 100% | – | – | – | – | – |
| O=C(NCC1CCOC1)c1cc(C(F)c2ccccc2)on1 (centres unmarked) [(154), N-(tetrahydrofuran-3-ylmethyl)-5-(1-fluoro-1-phenylmethyl)isoxazole-3-carboxamide] | – | – | – | – | – | – | – | ≥ 90% | ≥ 90% | – | – | – |
| O=C(NCC1CCOCC1)c1cc(COc2ccc(Cl)c(Cl)c2)on1 [(183)] | ≥ 80% | ≥ 90% | ≥ 80% | – | – | – | 100% | – | – | ≥ 90% | – | – |
| O=C(NCC1CCOC1)c1cc(COCC2CCCC2)on1 (centres unmarked) [(131), N-(tetrahydrofuran-3-ylmethyl)-5-cyclopentylmethoxymethylisoxazole-3-carboxamide] | – | – | ≥ 80% | – | – | – | – | ≥ 90% | – | – | ≥ 80% | ≥ 80% |
| O=C(NCC1CCOC1)c1noc(COCc2ccccc2)c1CF (centres unmarked) [(170), N-(tetrahydrofuran-3-ylmethyl)-(5-benzyloxymethyl-4-fluoromethyl)isoxazole-3-carboxamide] | – | ≥ 90% | ≥ 80% | ≥ 80% | – | ≥ 90% | 100% | – | – | ≥ 90% | – | – |
| O=C(NCC1CCS(=O)(=O)C1)c1cc(COCc2ccccc2)on1 (centres unmarked) [(39), N-(1,1-dioxotetrahydrothiophen-3-ylmethyl)-5-benzyloxymethylisoxazole-3-carboxamide] | – | ≥ 90% | – | – | – | ≥ 90% | 100% | – | – | ≥ 90% | – | – |
| O=C(NCC1CCOC1)c1cc(COCc2ccc3c(c2)CCCC3)on1 (centres unmarked) [(119), N-(tetrahydrofuran-3-ylmethyl)-5-(5,6,7,8-tetrahydronaphthalen-2-ylmethoxymethyl)isoxazole-3-carboxamide] | – | – | ≥ 80% | – | – | ≥ 90% | – | ≥ 90% | – | ≥ 90% | ≥ 80% | ≥ 80% |
| O=C(NCC1CCOCC1)c1cc(COCc2cccc(SC(F)(F)F)c2)on1 [(81), N-(tetrahydropyran-4-ylmethyl)-5-(3-trifluoromethylthiobenzyloxymethyl)isoxazole-3-carboxamide] | ≥ 80% | – | ≥ 80% | – | – | ≥ 90% | – | ≥ 90% | – | – | – | – |
| O=C(NCC1CCOC1)c1cc(CCCCCCCOc2ccc3ccccc3n2)on1 (centres unmarked) [(150), N-(tetrahydrofuran-3-ylmethyl)-5-[7-(2-quinolyloxy)heptyl]isoxazole-3-carboxamide] | – | ≥ 90% | ≥ 80% | – | ≥ 90% | ≥ 90% | 100% | – | – | ≥ 90% | – | ≥ 80% |
| O=C(NCC1CCOC1)c1cc(COCC2Oc3ccccc3O2)on1 (centres unmarked) [(122), N-(tetrahydrofuran-3-ylmethyl)-5-(1,3-benzodioxolan-2-ylmethoxymethyl)isoxazole-3-carboxamide] | – | – | ≥ 80% | ≥ 80% | – | – | 100% | – | – | – | – | – |
| CC(OCc1ccccc1)c1cc(C(=O)NCC2CCOC2)no1 (centres unmarked) [(129), N-(tetrahydrofuran-3-ylmethyl)-5-[1-(benzyloxy)ethyl]isoxazole-3-carboxamide] | – | – | – | – | – | – | – | ≥ 90% | ≥ 90% | – | – | – |
